Assay results as given in patent US20220340597A1, “HEXAHYDRO-1H-PYRAZINO[1,2-A]PYRAZINE COMPOUNDS FOR THE TREATMENT OF AUTOIMMUNE DISEASE” (Hoffmann-La Roche Inc., priority 2019, published 2022).

Target: T1, human TLR9 (Homo sapiens, UniProt Q9NR96)
T1 construct: host or cells: HEK293 (HEK-Blue hTLR9)
T1 sequence (Q9NR96 26-1032): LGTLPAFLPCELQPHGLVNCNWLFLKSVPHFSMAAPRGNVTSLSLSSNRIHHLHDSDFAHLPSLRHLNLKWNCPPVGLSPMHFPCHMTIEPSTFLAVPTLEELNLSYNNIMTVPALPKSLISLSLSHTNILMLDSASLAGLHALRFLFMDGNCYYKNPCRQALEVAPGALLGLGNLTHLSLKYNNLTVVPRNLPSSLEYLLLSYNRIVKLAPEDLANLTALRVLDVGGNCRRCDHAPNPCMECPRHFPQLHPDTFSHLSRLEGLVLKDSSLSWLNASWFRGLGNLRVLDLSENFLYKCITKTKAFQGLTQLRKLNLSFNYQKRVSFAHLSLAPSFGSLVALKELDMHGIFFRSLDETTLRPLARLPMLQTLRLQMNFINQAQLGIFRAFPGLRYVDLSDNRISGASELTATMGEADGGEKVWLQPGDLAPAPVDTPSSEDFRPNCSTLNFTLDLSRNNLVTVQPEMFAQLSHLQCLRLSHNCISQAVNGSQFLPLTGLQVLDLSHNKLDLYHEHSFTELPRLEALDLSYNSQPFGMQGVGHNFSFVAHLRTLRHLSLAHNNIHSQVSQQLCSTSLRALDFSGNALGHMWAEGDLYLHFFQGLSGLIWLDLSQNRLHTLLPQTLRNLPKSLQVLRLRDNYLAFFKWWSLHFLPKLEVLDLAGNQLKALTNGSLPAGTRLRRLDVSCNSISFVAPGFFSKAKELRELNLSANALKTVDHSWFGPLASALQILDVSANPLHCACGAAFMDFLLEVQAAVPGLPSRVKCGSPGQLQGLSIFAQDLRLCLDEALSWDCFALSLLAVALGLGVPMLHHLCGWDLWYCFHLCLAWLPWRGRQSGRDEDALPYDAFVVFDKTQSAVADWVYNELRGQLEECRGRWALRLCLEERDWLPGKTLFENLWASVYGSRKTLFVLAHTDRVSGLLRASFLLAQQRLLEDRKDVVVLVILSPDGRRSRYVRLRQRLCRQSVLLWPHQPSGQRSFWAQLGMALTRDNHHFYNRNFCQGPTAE
Assay: HEK293-Blue-hTLR-9 cells assay
Assay type: cell-based
Conditions: HEK293-Blue-hTLR9 cells, ODN2006 stimulation, 20 hrs, SEAP reporter; read-out: HEK/hTLR9 IC50

IC50 | SMILES
48 nM | C[C@@H]1CN(c2ccc(C#N)n3ncc(F)c23)C[C@@H]2CN(CCc3ccc(N4CC(C)(N)C4)nc3)CCN21 [Example 74, 4-[(4R,9aS)-8-[2-[6-(3-amino-3-methyl-azetidin-1-yl)-3-pyridyl]ethyl]-4-methyl-3,4,6,7,9,9a-hexahydro-1H-pyrazino[1,2-a]pyrazin-2-yl]-3-fluoro-pyrazolo[1,5-a]pyridine-7-carbonitrile]
65 nM | C[C@@H]1CN(c2ccc(C#N)n3ncc(F)c23)C[C@@H]2CN(CCc3ccc(N4C[C@@H](N)[C@@H](F)C4)nc3)CCN21 [Example 75, 4-[(4R,9aS)-8-[2-[6-[(3R,4S)-3-amino-4-fluoro-pyrrolidin-1-yl]-3-pyridyl]ethyl]-4-methyl-3,4,6,7,9,9a-hexahydro-1H-pyrazino[1,2-a]pyrazin-2-yl]-3-fluoro-pyrazolo[1,5-a]pyridine-7-carbonitrile]
50 nM | Cc1nc(N2CC(C)(N)C2)ccc1CN1CCN2[C@@H](C1)CN(c1ccc(C#N)c3ncccc13)C[C@H]2C [Example 76, 5-[(4R,9aS)-8-[[6-(3-amino-3-methyl-azetidin-1-yl)-2-methyl-3-pyridyl]methyl]-4-methyl-3,4,6,7,9,9a-hexahydro-1H-pyrazino[1,2-a]pyrazin-2-yl]quinoline-8-carbonitrile]
< 32 nM | [2H]c1ccc2c(N3C[C@@H]4CN(Cc5ccc(N6CCNCC6)nc5)CCN4[C@H](C)C3)ccc(C#N)c2n1 [Example 78, 5-[(4R,9aS)-4-methyl-8-[(6-piperazin-1-yl-3-pyridyl)methyl]-3,4,6,7,9,9a-hexahydro-1H-pyrazino[1,2-a]pyrazin-2-yl]-2-deuterio-quinoline-8-carbonitrile]
154 nM | [2H]c1ccc2c(N3C[C@@H]4CN(c5ncc(C(=O)N6CC7(CN(C)C7)C6)cc5C)CCN4[C@H](C)C3)ccc(C#N)c2n1 [Example 102, 5-[(4R,9aR)-4-methyl-8-[3-methyl-5-(6-methyl-2,6-diazaspiro[3.3]heptane-2-carbonyl)-2-pyridyl]-3,4,6,7,9,9a-hexahydro-1H-pyrazino[1,2-a]pyrazin-2-yl]-2-deuterio-quinoline-8-carbonitrile]
87 nM | [2H]c1ccc2c(N3C[C@@H]4CN(c5ncc(C(=O)N6CC7(CN(C)C7)C6)cc5C)CCN4[C@@H](C)C3)ccc(C#N)c2n1 [Example 103, 5-[(4S,9aR)-4-methyl-8-[3-methyl-5-(6-methyl-2,6-diazaspiro[3.3]heptane-2-carbonyl)-2-pyridyl]-3,4,6,7,9,9a-hexahydro-1H-pyrazino[1,2-a]pyrazin-2-yl]-2-deuterio-quinoline-8-carbonitrile]
< 32 nM | C[C@@H]1CN(c2ccc(C#N)c3ncccc23)C[C@@H]2CN(c3ccnc(N4CC[C@@](C)(N)C4)c3)CCN21 [Example 105, 5-[(4R,9aS)-8-[2-[(3R)-3-amino-3-methyl-pyrrolidin-1-yl]-4-pyridyl]-4-methyl-3,4,6,7,9,9a-hexahydro-1H-pyrazino[1,2-a]pyrazin-2-yl]quinoline-8-carbonitrile]
146 nM | [2H]c1ccc2c(N3C[C@@H]4CN(c5ccc([C@H]6CNCCO6)cc5)CCN4[C@@H](C)C3)ccc(C#N)c2n1 [Example 107, 5-[(4S,9aS)-4-methyl-8-[4-[(2S)-morpholin-2-yl]phenyl]-3,4,6,7,9,9a-hexahydro-1H-pyrazino[1,2-a]pyrazin-2-yl]-2-deuterio-quinoline-8-carbonitrile]
110 nM | [2H]c1ccc2c(N3C[C@@H]4CN(c5ncc(N6C[C@H]7NCCO[C@@H]7C6)cc5C)CCN4[C@@H](C)C3)ccc(C#N)c2n1 [Example 114, 5-[(4S,9aR)-8-[5-[(4aR,7aR)-3,4,4a,5,7,7a-hexahydro-2H-pyrrolo[3,4-b][1,4]oxazin-6-yl]-3-methyl-2-pyridyl]-4-methyl-3,4,6,7,9,9a-hexahydro-1H-pyrazino[1,2-a]pyrazin-2-yl]-2-deuterio-quinoline-8-carbonitrile]
42 nM | [2H]c1ccc2c(N3C[C@@H]4CN(c5ccc(CCN6C[C@@H](N)[C@@H](F)C6)nc5)CCN4[C@@H](C)C3)ccc(C#N)c2n1 [Example 117, 5-[(4S,9aR)-8-[6-[2-[(3R,4S)-3-amino-4-fluoro-pyrrolidin-1-yl]ethyl]-3-pyridyl]-4-methyl-3,4,6,7,9,9a-hexahydro-1H-pyrazino[1,2-a]pyrazin-2-yl]-2-deuterio-quinoline-8-carbonitrile]
51 nM | [2H]c1ccc2c(N3C[C@@H]4CN(c5ccc(CCN6C[C@H](OC)[C@@H](N)C6)cn5)CCN4[C@@H](C)C3)ccc(C#N)c2n1 [Example 122, 5-[(4S,9aR)-8-[5-[2-[(3S,4S)-3-amino-4-methoxy-pyrrolidin-1-yl]ethyl]-2-pyridyl]-4-methyl-3,4,6,7,9,9a-hexahydro-1H-pyrazino[1,2-a]pyrazin-2-yl]-2-deuterio-quinoline-8-carbonitrile]
107 nM | [2H]c1ccc2c(N3C[C@@H]4CN(c5ccc(CN6C[C@@H](N)[C@H](OC)C6)c(C)n5)CCN4[C@@H](C)C3)ccc(C#N)c2n1 [Example 123, 5-[(4S,9aR)-8-[5-[[(3R,4R)-3-amino-4-methoxy-pyrrolidin-1-yl]methyl]-6-methyl-2-pyridyl]-4-methyl-3,4,6,7,9,9a-hexahydro-1H-pyrazino[1,2-a]pyrazin-2-yl]-2-deuterio-quinoline-8-carbonitrile]
55 nM | C[C@@H]1CN(c2ccc(C#N)c3ncccc23)C[C@@H]2CN(CCc3ccc(N4C[C@H]5NCCO[C@@H]5C4)nc3)CCN21 [Example 124, 5-[(4R,9aS)-8-[2-[6-[(4aR,7aR)-3,4,4a,5,7,7a-hexahydro-2H-pyrrolo[3,4-b][1,4]oxazin-6-yl]-3-pyridyl]ethyl]-4-methyl-3,4,6,7,9,9a-hexahydro-1H-pyrazino[1,2-a]pyrazin-2-yl]quinoline-8-carbonitrile]
120 nM | C[C@H]1CN(c2ccc(C#N)c3ncccc23)C[C@@H]2CN(c3ccc([C@@H]4CNCCO4)cc3)CCN21 [Example 125, 5-[(4S,9aS)-4-methyl-8-[4-[(2R)-morpholin-2-yl]phenyl]-3,4,6,7,9,9a-hexahydro-1H-pyrazino[1,2-a]pyrazin-2-yl]quinoline-8-carbonitrile]

SMILES | IC50
[2H]c1ccc2c(N3C[C@@H]4CN(c5ncc(N6CC7CC(C6)N7)cc5C)CCN4[C@@H](C)C3)ccc(C#N)c2n1 [Example 108, 5-[(4S,9aR)-8-[5-(3,6-diazabicyclo[3.1.1]heptan-3-yl)-3-methyl-2-pyridyl]-4-methyl-3,4,6,7,9,9a-hexahydro-1H-pyrazino[1,2-a]pyrazin-2-yl]-2-deuterio-quinoline-8-carbonitrile] | 98 nM
